The values that follow come from patent US20130096067A1, “DROSOPHILA TUMOR STEM CELL MODEL AND USES THEREOF” (priority 2011, published 2013).

The subject of the assay is Raf-1^gof intestinal tumors. The following applies: for Log2 (fold) (luciferase activity, log2 of the fold difference relative to DMSO controls) / Fold (luciferase activity, fold difference relative to DMSO controls): screen of 480 ICCB compounds in vials, compounds fed to flies with one-day old Raf-1^gof tumors, esg-Gal4 luciferase; for Log2 (fold) (luciferase activity, log2 of the fold difference relative to DMSO controls) / Fold (luciferase activity, fold difference relative to DMSO controls) / Log2 (fold) of luciferase activity relative to DMSO controls / Fold (luciferase activity relative to DMSO controls): assessed three days later; for Fold (luciferase activity, fold difference relative to DMSO controls) / Fold (luciferase activity relative to DMSO controls): averaged from multiple wells; for Log2 (fold) of luciferase activity relative to DMSO controls / Fold (luciferase activity relative to DMSO controls): ICCB compounds fed in vials to flies with one-day old Raf-1^gof tumors.

Peptide text beside a SMILES is read from it. * marks the point of attachment. CH2Cl = ClC*
Wherever Fold (luciferase activity relative to DMSO controls) is given: test concentration or dose not given here.
Wherever Fold (luciferase activity, fold difference relative to DMSO controls) is given: test concentration or dose not given here.
Wherever Log2 (fold) (luciferase activity, log2 of the fold difference relative to DMSO controls) is given: test concentration or dose not given here.
Wherever Log2 (fold) of luciferase activity relative to DMSO controls is given: test concentration or dose not given here.

Turning to `CCCCC[C@H](O)/C=C/[C@@H]1[C@H]2C/C(=C/CCCC(=O)O)C[C@H]2C[C@H]1O` [CARBACYCLIN], the “Log2 (fold) (luciferase activity, log2 of the fold difference relative to DMSO controls)” value was −0.283 and the “Fold (luciferase activity, fold difference relative to DMSO controls)” value stood at 0.822.
On to `CCCCC/C=C\C/C=C\CC1OC1C/C=C\CCCC(=O)O` (stereo not drawn) [8,9-EPOXYEICOSATRIENOIC ACID], for which the “Log2 (fold) (luciferase activity, log2 of the fold difference relative to DMSO controls)” value is listed as −0.625 and the “Fold (luciferase activity, fold difference relative to DMSO controls)” value was 0.649.
As for `CCCCC/C=C\C/C=C\C/C=C\C=C\[C@@H](O)CCCC(=O)O` [5(S)-HETE], the “Log2 (fold) (luciferase activity, log2 of the fold difference relative to DMSO controls)” value is on record as −0.343 and the “Fold (luciferase activity, fold difference relative to DMSO controls)” value amounted to 0.788.
The corresponding values for `CCCCCc1cc(O)c2c(c1)OC(C)(C)C1CCC(C(=O)O)=CC21` (stereo not drawn) [TETRAHYDROCANNABINOL-7-OIC ACID] are −0.240 and 0.847.
On to `CC(=O)[C@H]1[C@H](C#N)C[C@H]2[C@@H]3CC=C4C[C@@H](O)CC[C@]4(C)[C@H]3CC[C@@]21C` [Pregnenolone 16alpha carbonitrile], for which the “Log2 (fold) (luciferase activity, log2 of the fold difference relative to DMSO controls)” value was −0.492 and the “Fold (luciferase activity, fold difference relative to DMSO controls)” value was determined as 0.711.
In the case of `CCCCC/C=C\C/C=C\CCCCCCCC(=O)OC(CO)COC(=O)CCCCCCCCCCCCCCCCC` (stereo not drawn) [1-STEAROYL-2-LINOLEOYL-GLYCEROL], the “Log2 (fold) (luciferase activity, log2 of the fold difference relative to DMSO controls)” value is reported as −0.456 and the “Fold (luciferase activity, fold difference relative to DMSO controls)” value was found to be 0.729.
The corresponding values for `C[C@H](N)C(=O)N[C@@H](C)C(=O)N[C@@H](Cc1ccccc1)C(=O)CCl` [Ala-Ala-Phe-CMK] (H-Ala-Ala-Phe-CH2Cl) are −0.738 and 0.599.
Take `CCN1C[C@]2(COC)[C@H](O)C[C@H](OC)[C@@]34[C@@H]5C[C@@]6(O)[C@H](OC(=O)c7ccccc7)[C@@H]5[C@@](OC(C)=O)([C@@H]([C@H](OC)[C@H]23)[C@@H]14)[C@@H](O)[C@@H]6OC` [ACONITINE]: the “Log2 (fold) (luciferase activity, log2 of the fold difference relative to DMSO controls)” value is recorded as −0.278 and the “Fold (luciferase activity, fold difference relative to DMSO controls)” value was 0.825.
`CCCCC/C=C\C[C@H](O)/C=C/C=C\C/C=C\CCCC(=O)O` [12(S)-HETE]: the “Log2 (fold) of luciferase activity relative to DMSO controls” value was 0.055 and the “Fold (luciferase activity relative to DMSO controls)” value worked out at 1.039 fold.
Regarding `COCCCCCCCCCCCC(=O)O` [12-METHOXYDODECANOIC ACID], the “Log2 (fold) (luciferase activity, log2 of the fold difference relative to DMSO controls)” value is listed as −0.320 and the “Fold (luciferase activity, fold difference relative to DMSO controls)” value stood at 0.801.
Take `Cn1c2ccccc2c2c3c(c4c5ccccc5n(CCC#N)c4c21)CNC3=O` [Go6976]: the “Log2 (fold) (luciferase activity, log2 of the fold difference relative to DMSO controls)” value is reported as −0.287 and the “Fold (luciferase activity, fold difference relative to DMSO controls)” value is 0.819.
The like results for `C=C[C@@]1(C)CC(=O)[C@]2(O)[C@@]3(C)[C@@H](O)CCC(C)(C)[C@@H]3[C@H](O)[C@H](OC(C)=O)[C@@]2(C)O1` [forskolin] were, in that order, −0.449 and 0.732.
The like results for `CCC(C)[C@H](NS(=O)(=O)c1cccc2ccccc12)C(=O)N[C@H](C=O)Cc1c[nH]c2ccccc12` (stereo partly drawn) [NapSul-Ile-Trp-CHO] were, in that order, −0.554 and 0.681.
Regarding `CCCCC[C@H](O)/C=C/[C@H]1C=CC(=O)[C@@H]1CCCCCCC(=O)O` [PROSTAGLANDIN A1], the “Log2 (fold) (luciferase activity, log2 of the fold difference relative to DMSO controls)” value is recorded as −0.522 and the “Fold (luciferase activity, fold difference relative to DMSO controls)” value was found to be 0.696.
With `CS(=O)(=O)Nc1ccc([N+](=O)[O-])cc1OC1CCCCC1` [NS-398], the “Log2 (fold) (luciferase activity, log2 of the fold difference relative to DMSO controls)” value is on record as −0.592 and the “Fold (luciferase activity, fold difference relative to DMSO controls)” value is listed as 0.663.
The corresponding values for `Cc1c(C(=O)c2cccc3ccccc23)c2cccc3c2n1[C@H](CN1CCOCC1)CO3` [WIN 55,212-2] are −0.305 and 0.810.
For `CCCCCCCCCCC/C=C\C(C)(C)/C=C\CCCC(=O)O` [7,7-DIMETHYLEICOSADIENOIC ACID], the “Log2 (fold) of luciferase activity relative to DMSO controls” value worked out at 0.021 and the “Fold (luciferase activity relative to DMSO controls)” value was found to be 1.014 fold.
For the compound `Oc1ccc(C=Cc2cc(O)cc(O)c2)cc1` [resveratrol], the “Log2 (fold) (luciferase activity, log2 of the fold difference relative to DMSO controls)” value is recorded as −0.551 and the “Fold (luciferase activity, fold difference relative to DMSO controls)” value came to 0.682.
With `COc1cc2c(cc1OC)-c1c/c(=N\c3c(C)cc(C)cc3C)n(C)c(=O)n1CC2` [Trequinsin], the “Log2 (fold) (luciferase activity, log2 of the fold difference relative to DMSO controls)” value was −0.279 and the “Fold (luciferase activity, fold difference relative to DMSO controls)” value is recorded as 0.824.
Consider `Cc1c(C(=O)NN2CCCCC2)nn(-c2ccc(Cl)cc2Cl)c1-c1ccc(I)cc1` [AM-251], for which the “Log2 (fold) of luciferase activity relative to DMSO controls” value was determined as 0.065 and the “Fold (luciferase activity relative to DMSO controls)” value stood at 1.046 fold.
The like results for `O=C1Nc2ccccc2/C1=C1/Nc2ccccc2C1=O` [Indirubin] were, in that order, −0.103 and 0.931 fold.
Regarding `Cc1[nH]c(=O)c(C#N)cc1-c1ccncc1` [Milrinone], the “Log2 (fold) (luciferase activity, log2 of the fold difference relative to DMSO controls)” value was −0.615 and the “Fold (luciferase activity, fold difference relative to DMSO controls)” value was 0.653.
The corresponding values for `CCCCC[C@H](O)/C=C/[C@H]1[C@H](O)CC(=O)[C@@H]1CCCCCCC(=O)O` [PROSTAGLANDIN E1] are −0.561 and 0.678.
As to `O=c1oc(Cl)c(Cl)c2ccccc12` [3,4-dichloroisocoumarin], the “Log2 (fold) (luciferase activity, log2 of the fold difference relative to DMSO controls)” value is given as −0.772 and the “Fold (luciferase activity, fold difference relative to DMSO controls)” value came to 0.586.
The like results for `CCCCCCCCCCCCCCC[C@@H](O)[C@H](CO)NC(C)=O` [C2 DIHYDROCERAMIDE] were, in that order, −0.466 and 0.724.
Turning to `Clc1ccc(-c2nc3sccn3c2/C=N/OCc2ccc(Cl)c(Cl)c2)cc1` [CITCO], the “Log2 (fold) of luciferase activity relative to DMSO controls” value is reported as −0.162 and the “Fold (luciferase activity relative to DMSO controls)” value was found to be 0.894 fold.
tunicamycin [reference compound]: the “Log2 (fold) (luciferase activity, log2 of the fold difference relative to DMSO controls)” value is listed as −1.925 and the “Fold (luciferase activity, fold difference relative to DMSO controls)” value was determined as 0.263. Moreover, where the note is “Table 3 summary of hits, Screen ICCB, luciferase relative to DMSO, fed three consecutive days in vials”, the Fold is on record as 0.263 fold.
Regarding `CCCC[C@H]1C(=O)O[C@H](C)[C@H](NC(=O)c2cccc(NC=O)c2OC)C(=O)O[C@@H](C)[C@@H]1OC(=O)CC(C)C` [2-methoxyantimycin A3], the “Log2 (fold) (luciferase activity, log2 of the fold difference relative to DMSO controls)” value is recorded as −0.873 and the “Fold (luciferase activity, fold difference relative to DMSO controls)” value was 0.546.
The like results for `CCCCC/C=C\C/C=C\C/C=C\C/C=C\CCCC(=O)O[C@H](COCCCCCCCCCCCCCCCC)COP(=O)([O-])OCC[N+](C)(C)C` [ARACHIDONOYL-PAF] were, in that order, −0.439 and 0.738.
The corresponding values for `CC(=O)N[C@@H](CSC/C=C(\C)CC/C=C(\C)CCC=C(C)C)C(=O)O` are −0.664 and 0.631.
The like results for `CCCCCC(=O)/C=C/C=C\C/C=C\C/C=C\CCCC(=O)O` [15-KETOEICOSATETRAENOIC ACID] were, in that order, −0.266 and 0.832.
With `CCCCC[C@@H](/C=C/C=C\CCCCCCCC(=O)O)OO` [13(S)-HPODE], the “Log2 (fold) of luciferase activity relative to DMSO controls” value worked out at 0.309 and the “Fold (luciferase activity relative to DMSO controls)” value was 1.239 fold.
Take LY-83583: the “Log2 (fold) (luciferase activity, log2 of the fold difference relative to DMSO controls)” value is recorded as −0.465 and the “Fold (luciferase activity, fold difference relative to DMSO controls)” value amounted to 0.725.
The corresponding values for `COc1cccc2c1C(=O)c1c(O)c3c(c(O)c1C2=O)C[C@@](O)(C(=O)CO)C[C@@H]3O[C@H]1C[C@H](N)[C@H](O)[C@H](C)O1` [doxorubicin] are −0.520 and 0.697.
In the case of `CC(=O)OCOC(c1cc([N+](=O)[O-])ccc1Oc1ccc(Br)cc1)P(=O)(OCOC(C)=O)OCOC(C)=O` (stereo not drawn) [RWJ-60475-(AM)3], the “Log2 (fold) (luciferase activity, log2 of the fold difference relative to DMSO controls)” value is −0.217 and the “Fold (luciferase activity, fold difference relative to DMSO controls)” value is given as 0.861.
In the case of `CN1CCN(CCCN2c3ccccc3Sc3ccc(C(F)(F)F)cc32)CC1` [trifluoperazine], the “Log2 (fold) of luciferase activity relative to DMSO controls” value was −0.206 and the “Fold (luciferase activity relative to DMSO controls)” value is recorded as 0.867 fold.
Regarding `CCN(CC)CCCCCCCCOC(=O)c1cc(OC)c(OC)c(OC)c1` [TMB-8], the “Log2 (fold) (luciferase activity, log2 of the fold difference relative to DMSO controls)” value is −0.325 and the “Fold (luciferase activity, fold difference relative to DMSO controls)” value was found to be 0.798.
In the case of `CC(C)COCC(CN(Cc1ccccc1)c1ccccc1)N1CCCC1` (stereo not drawn) [BEPRIDIL], the “Log2 (fold) of luciferase activity relative to DMSO controls” value is given as −0.054 and the “Fold (luciferase activity relative to DMSO controls)” value is given as 0.963 fold.
Turning to `O=C1NC(=O)C(c2ccccc2)(c2ccccc2)N1` [PHENYTOIN], the “Log2 (fold) (luciferase activity, log2 of the fold difference relative to DMSO controls)” value was −0.300 and the “Fold (luciferase activity, fold difference relative to DMSO controls)” value turned out to be 0.812.
In the case of `CNC(=O)[C@H](Cc1c[nH]c2ccccc12)NC(=O)[C@@H](CC(=O)NO)CC(C)C` [GM6001], the “Log2 (fold) of luciferase activity relative to DMSO controls” value is 0.173 and the “Fold (luciferase activity relative to DMSO controls)” value worked out at 1.128 fold.
